Reference: article PMC5547395 (EXCLI Journal, 2017)

Experiments:
[1] = molecular target: T1, Sterol 14α-demethylase (CYP51) from Candida albicans (CaCYP51) (Candida albicans, UniProt P10613); assay: UV-visible difference spectroscopy (type II spectral response) with isolated CYP51; format: binding
T1 construct: gene ERG11

human CYP51 (hCYP51) = molecular target: T2, human CYP51 (hCYP51) (Homo sapiens, UniProt Q16850); assay: Kd reported; presumably UV-visible difference spectroscopy (type II), human assay not described in Methods; format: binding
T2 construct: gene CYP51A1
T2 sequence (Q16850 1-509): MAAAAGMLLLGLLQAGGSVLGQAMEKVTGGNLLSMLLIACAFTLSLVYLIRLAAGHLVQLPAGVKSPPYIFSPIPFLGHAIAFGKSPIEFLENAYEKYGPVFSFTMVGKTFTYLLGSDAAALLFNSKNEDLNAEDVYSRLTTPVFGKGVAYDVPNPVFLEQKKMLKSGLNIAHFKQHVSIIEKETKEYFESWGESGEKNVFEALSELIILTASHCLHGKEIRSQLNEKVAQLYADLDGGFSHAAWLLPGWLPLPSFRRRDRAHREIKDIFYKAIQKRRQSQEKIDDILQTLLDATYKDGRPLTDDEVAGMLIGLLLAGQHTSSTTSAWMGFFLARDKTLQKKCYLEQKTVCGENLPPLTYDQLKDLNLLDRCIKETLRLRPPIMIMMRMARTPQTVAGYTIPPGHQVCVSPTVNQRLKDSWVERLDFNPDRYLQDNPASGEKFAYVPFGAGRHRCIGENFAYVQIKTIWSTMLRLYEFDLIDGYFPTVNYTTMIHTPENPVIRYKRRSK

T1 sequence (P10613 whole entry): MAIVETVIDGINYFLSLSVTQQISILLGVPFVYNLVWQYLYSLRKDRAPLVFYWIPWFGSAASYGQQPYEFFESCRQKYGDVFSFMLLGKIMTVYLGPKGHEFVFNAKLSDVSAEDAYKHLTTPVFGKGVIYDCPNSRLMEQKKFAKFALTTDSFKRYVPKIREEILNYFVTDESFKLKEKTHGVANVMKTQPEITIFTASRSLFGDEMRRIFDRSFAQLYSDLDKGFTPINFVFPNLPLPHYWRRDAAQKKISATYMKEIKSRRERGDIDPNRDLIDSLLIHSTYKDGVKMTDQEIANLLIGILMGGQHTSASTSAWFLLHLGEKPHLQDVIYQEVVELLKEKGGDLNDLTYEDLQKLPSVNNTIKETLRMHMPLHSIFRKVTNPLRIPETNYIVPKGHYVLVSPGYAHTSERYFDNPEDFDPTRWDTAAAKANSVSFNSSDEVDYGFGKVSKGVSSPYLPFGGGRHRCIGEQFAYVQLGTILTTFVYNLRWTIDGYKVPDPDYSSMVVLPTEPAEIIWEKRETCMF

What does the source list for `CC(=O)N1CCN(c2ccc(OC[C@H]3CO[C@](Cn4ccnc4)(c4ccc(Cl)cc4Cl)O3)cc2)CC1` (racemic) [ketoconazole]?
Kd [1]: < 50 nM; Kd (human CYP51 (hCYP51)): < 50 nM
